Patent US7223839B2, “Histamine receptor H3 polynucleotides” (Merck & Co., Inc., priority 2001, dated 2007)

Key:
H3b variant = H3b variant (Homo sapiens, UniProt Q9Y5N1, E19D); settings: COS-7 cells transfected with H3b; 1 μM BODIPY-L-Histamine or Fluorescein Histamine in PBS, 37° C., 30 min; compared with H3a wild type
Experimental: (§1) The full length wild type receptor (H3a) and receptor variants H3g and H3h, as well as the variant H3b (which contains the 240 base, 80 amino acid deletion in intracellular loop 3 (i3) but not the N-terminal 108 base, 36 amino acid deletion), were cloned in pCDNA3.0 eukaryotic expression vector for expression in COS-7 cells. The COS-7 cells grown in culture chambers were transfected with 2 μg of plasmid DNA containing one of the H3 receptor or receptor variants with superfect (Qiagen) transfection reagent.
(§2) Binding of Histamine to receptor or receptor variant was determined by BODIPY-L-Histamine or Fluorescein Histamine (Molecular Probes). Briefly, the transfected cells were washed with PBS and 1 μM of BODIPY-L-Histamine or Fluorescein Histamine in PBS was added to the cells and incubated at 37° C. for 30 min. Unbound fluorescent labeled histamine was washed in cold PBS and the slides were examined immediately under a fluorescent microscope.

H3g receptor variant = H3g receptor variant (Homo sapiens, UniProt Q9Y5N1, DEL7-42); settings: COS-7 cells transfected with H3g; 1 μM BODIPY-L-Histamine or Fluorescein Histamine in PBS, 37° C., 30 min; compared with H3a wild type
Experimental: as §1, §2

H3h receptor variant = H3h receptor variant (Homo sapiens, UniProt Q9Y5N1, DEL7-42); settings: COS-7 cells transfected with H3h; 1 μM BODIPY-L-Histamine or Fluorescein Histamine in PBS, 37° C., 30 min; compared with H3a wild type
Experimental: as §1, §2

Chain of H3g receptor variant (Q9Y5N1 with tags, fused parts or gaps DEL7-42): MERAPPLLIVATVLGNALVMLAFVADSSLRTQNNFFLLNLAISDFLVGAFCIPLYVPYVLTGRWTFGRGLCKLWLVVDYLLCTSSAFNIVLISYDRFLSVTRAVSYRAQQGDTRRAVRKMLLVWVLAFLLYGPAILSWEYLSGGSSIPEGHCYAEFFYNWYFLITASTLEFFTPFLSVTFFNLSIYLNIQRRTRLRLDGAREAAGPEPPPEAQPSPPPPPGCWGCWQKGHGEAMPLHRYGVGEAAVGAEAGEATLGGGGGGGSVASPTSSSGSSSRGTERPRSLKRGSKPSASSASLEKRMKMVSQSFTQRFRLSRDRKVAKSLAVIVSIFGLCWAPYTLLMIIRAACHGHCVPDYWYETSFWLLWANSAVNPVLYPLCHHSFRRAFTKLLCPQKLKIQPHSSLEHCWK
Chain of H3b variant (Q9Y5N1 1-365 isoform Q9Y5N1-3 E19D): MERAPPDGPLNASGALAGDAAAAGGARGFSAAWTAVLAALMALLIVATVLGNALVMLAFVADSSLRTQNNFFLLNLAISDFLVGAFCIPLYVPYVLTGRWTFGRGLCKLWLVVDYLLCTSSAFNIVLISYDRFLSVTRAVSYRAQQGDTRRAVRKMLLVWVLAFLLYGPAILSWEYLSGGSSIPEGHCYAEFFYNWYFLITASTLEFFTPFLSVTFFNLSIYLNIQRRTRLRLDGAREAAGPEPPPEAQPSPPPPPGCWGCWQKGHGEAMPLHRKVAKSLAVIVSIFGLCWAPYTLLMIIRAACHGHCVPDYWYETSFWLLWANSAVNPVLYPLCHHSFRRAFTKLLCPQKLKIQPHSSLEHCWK
Chain of H3h receptor variant (Q9Y5N1 with tags, fused parts or gaps isoform Q9Y5N1-3 DEL7-42): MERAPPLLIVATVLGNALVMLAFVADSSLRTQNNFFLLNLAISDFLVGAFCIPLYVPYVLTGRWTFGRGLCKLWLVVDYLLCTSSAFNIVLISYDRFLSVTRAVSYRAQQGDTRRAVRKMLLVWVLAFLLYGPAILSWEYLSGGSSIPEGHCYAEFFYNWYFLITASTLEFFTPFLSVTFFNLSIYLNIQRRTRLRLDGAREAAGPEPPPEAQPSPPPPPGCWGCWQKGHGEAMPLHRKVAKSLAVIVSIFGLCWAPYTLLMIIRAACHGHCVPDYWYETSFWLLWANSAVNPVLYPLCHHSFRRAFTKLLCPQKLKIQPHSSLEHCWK

SMILES: NCCc1c[nH]cn1 [histamine]
- histamine binding (H3b variant): comparable to the cell transfected with the H3a wild type receptor
- histamine binding (H3g receptor variant): comparable to the cell transfected with the H3a wild type receptor
- histamine binding (H3h receptor variant): comparable to the cell transfected with the H3a wild type receptor
